Consider 24 compounds from patent US11053234B2 (GlaxoSmithKline Intellectual Property Development Limited, priority 2016, dated 2021).

T1 sequence (O60760 whole entry): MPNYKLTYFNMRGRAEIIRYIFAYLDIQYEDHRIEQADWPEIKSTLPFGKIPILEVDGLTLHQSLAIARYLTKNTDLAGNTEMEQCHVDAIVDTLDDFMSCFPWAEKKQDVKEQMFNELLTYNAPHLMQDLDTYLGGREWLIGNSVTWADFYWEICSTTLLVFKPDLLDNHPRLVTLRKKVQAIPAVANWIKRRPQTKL

The assay concerns the target T1, haematopoietic prostaglandin D synthase (H-PGDS) (Homo sapiens, UniProt O60760).
T1 construct: Full length human H-PGDS cDNA (Invitrogen Ultimate ORF 10H13026) was amplified by PCR; 6-His (N); TEV protease cleavage site (N); made in house; host or cells: E. coli BL21 (DE3*), vector pET22b+
In words: H-PGDS RapidFire high throughput mass spectrometry assay (conversion of PGH2 to PGD2). It counts as biochemical. The note with it: 10 nM H-PGDS, PGH2 formed in situ by COX-2 from arachidonic acid; read-out: Potency Range (mean pIC50) (converted). An outline of the steps: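 RapidFire SPE–MS read-out calculated percent conversion from relative PGD2 and PGF2α (substrate surrogate) levels. Recombinant full-length human H-PGDS (His-tag, E. coli) turned over PGH2, produced in situ at ˜10 μM by human COX-2 (FLAG-tag, Sf9 cells) acting on arachidonic acid.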
Turning to `O=C(NC1CN(c2ncccn2)C1)[C@H]1C[C@H](Oc2cc(F)ccc2OC(F)F)C1` [Example 17, (trans)-3-(2-(Difluoromethoxy)-5-fluorophenoxy)-N-(1-(pyrimidin-2-yl)azetidin-3-yl)cyclobutanecarboxamide], the IC50 is 10 to 79.4 nM.
As to `CC(C)(O)[C@H]1CC[C@H](NC(=S)N2CC(Oc3cccc4scnc34)C2)CC1` [Example 95, 3-(Benzo[d]thiazol-4-yloxy)-N-((trans)-4-(2-hydroxypropan-2-yl)cyclohexyl) azetidine-1-carbothioamide], the IC50 was 10 to 79.4 nM.
`O=C(NC1CN(c2ncccn2)C1)[C@H]1C[C@H](Oc2cccc3scnc23)C1` [Example 80, (trans)-3-(Benzo[d]thiazol-4-yloxy)-N-(1-(pyrimidin-2-yl)azetidin-3-yl)cyclobutanecarboxamide]: the IC50 is 10 to 79.4 nM.
With `CCn1nnnc1NC(=O)N1CC(Oc2cccc3scnc23)C1` [Example 325, 3-(Benzo[d]thiazol-4-yloxy)-N-(1-ethyl-1H-tetrazol-5-yl)azetidine-1-carboxamide], the IC50 was 100 to 1000 nM.
The value for `O=C(NC1CN(c2cccnn2)C1)[C@H]1C[C@H](Oc2cccc3scnc23)C1` [Example 245, (trans)-3-(Benzo[d]thiazol-4-yloxy)-N-(1-(pyridazin-3-yl)azetidin-3-yl)cyclobutanecarboxamide] was 10 to 79.4 nM.
As for `O=C(N[C@H]1CC[C@@H](NC(CO)C(F)(F)F)CC1)[C@H]1C[C@H](Oc2cc(F)cc3scnc23)C1` (mixture of isomers) [Example 125, Racemic (trans)-3-((6-Fluorobenzo[d]thiazol-4-yl)oxy)-N-((cis)-4-((1,1,1-trifluoro-3-hydroxypropan-2-yl)amino)cyclohexyl)cyclobutanecarboxamide], the figure is 10 to 79.4 nM; as for `COc1ccc(F)cc1O[C@H]1C[C@H](C(=O)NC2CC3(C2)CN(c2cc(C#N)ccn2)C3)C1` [Example 148, (trans)-N-(2-(4-Cyanopyridin-2-yl)-2-azaspiro[3.3]heptan-6-yl)-3-(5-fluoro-2-methoxyphenoxy)cyclobutanecarboxamide], 10 to 79.4 nM; as for `O=C(NC1CN(c2ccccn2)C1)[C@H]1C[C@H](Oc2cc(F)cc3scnc23)C1` [Example 137, (trans)-3-((6-Fluorobenzo[d]thiazol-4-yl)oxy)-N-(1-(pyridin-2-yl)azetidin-3-yl)cyclobutanecarboxamide], 10 to 79.4 nM.
As to `O=C(O)c1csc(NC(=O)[C@H]2C[C@H](Oc3cccc4cccnc34)C2)n1` [Example 193, 2-((trans)-3-(Quinolin-8-yloxy)cyclobutanecarboxamido)thiazole-4-carboxylic acid], the IC50 is 10 to 79.4 nM.
`O=C(Nc1nccs1)[C@H]1C[C@H](Oc2cc(F)cc3cccnc23)C1` [Example 294, (trans)-3-((6-Fluoroquinolin-8-yl)oxy)-N-(thiazol-2-yl)cyclobutanecarboxamide]: the IC50 was 10 to 79.4 nM.
The value for `Cc1ccc(N2CC(NC(=O)[C@H]3C[C@H](Oc4cc(F)cc5scnc45)C3)C2)[n+]([O-])c1` [Example 111, 2-(3-((trans)-3-((6-Fluorobenzo[d]thiazol-4-yl)oxy)cyclobutanecarboxamido)azetidin-1-yl)-5-methylpyridine 1-oxide] was 100 to 1000 nM; that for `CC(C)(O)[C@H]1CC[C@H](NC(=O)[C@H]2C[C@H](Oc3ccccc3OC(F)F)C2)CC1` [Example 278, (trans)-3-(2-(Difluoromethoxy)phenoxy)-N-((trans)-4-(2-hydroxypropan-2-yl)cyclohexyl)cyclobutanecarboxamide] was 10 to 79.4 nM; that for `Cc1cnc(N2CC(NC(=O)[C@H]3C[C@H](Oc4cc(F)cc5scnc45)C3)C2)nc1` [Example 112, (trans)-3-((6-Fluorobenzo[d]thiazol-4-yl)oxy)-N-(1-(5-methylpyrimidin-2-yl)azetidin-3-yl)cyclobutanecarboxamide] was 10 to 79.4 nM.
As for `O=C(N[C@H]1C[C@H](Nc2ncccn2)C1)[C@H]1C[C@H](Oc2cccc3scnc23)C1` [Example 73, (trans)-3-(Benzo[d]thiazol-4-yloxy)-N-((trans)-3-(pyrimidin-2-ylamino)cyclobutyl)cyclobutanecarboxamide], the figure is 100 to 1000 nM; as for `O=C(Nc1ccncc1)N1CC(Oc2cccc3scnc23)C1` [Example 63, 3-(Benzo[d]thiazol-4-yloxy)-N-(pyridin-4-yl)azetidine-1-carboxamide], 100 to 1000 nM; as for `CC(C)(O)[C@H]1CC[C@H](NC(=O)N2CC(Oc3ccccc3OC(F)(F)F)C2)CC1` [Example 258], 100 to 1000 nM.
The value for `O=C(N[C@H]1CC[C@H](C(O)C2CC2)CC1)[C@H]1C[C@H](Oc2cc(F)ccc2OC(F)F)C1` (mixture of isomers) [Example 27, Racemic (trans)-N-((trans)-4-(Cyclopropyl(hydroxy)methyl)cyclohexyl)-3-(2-(difluoromethoxy)-5-fluorophenoxy)cyclobutanecarboxamide] was 10 to 79.4 nM; that for `Cn1nc(C2CC2)cc1NC(=O)[C@H]1C[C@H](Oc2cccc3cccnc23)C1` [Example 214, (trans)-N-(3-Cyclopropyl-1-methyl-1H-pyrazol-5-yl)-3-(quinolin-8-yloxy)cyclobutanecarboxamide] was 100 to 1000 nM.
Consider `CC(C)(O)[C@H]1CC[C@H](NC(=O)[C@H]2C[C@H](Oc3cccc4ccoc34)C2)CC1` [Example 267, (trans)-3-(Benzofuran-7-yloxy)-N-((trans)-4-(2-hydroxypropan-2-yl)cyclohexyl)cyclobutanecarboxamide], for which the IC50 is 10 to 79.4 nM.
As to `O=C(NC1CCN(c2ncc(F)cn2)CC1)[C@H]1C[C@H](Oc2cc(F)cc3scnc23)C1` [Example 117, (trans)-3-((6-Fluorobenzo[d]thiazol-4-yl)oxy)-N-(1-(5-fluoropyrimidin-2-yl)piperidin-4-yl)cyclobutanecarboxamide], the IC50 is 10 to 79.4 nM.
As for `CC(O)(c1csc(NC(=O)[C@H]2C[C@H](Oc3cccc4cccnc34)C2)n1)C(F)(F)F` (mixture of isomers) [Example 187, Racemic (trans)-3-(Quinolin-8-yloxy)-N-(4-(1,1,1-trifluoro-2-hydroxypropan-2-yl)thiazol-2-yl)cyclobutanecarboxamide], the figure is 10 to 79.4 nM; as for `CC(C)(O)[C@@H]1CC[C@@H](NC(=O)[C@H]2C[C@H](Oc3cccc4scnc34)C2)CO1` (racemic) [Example 51, Racemic (trans)-3-(Benzo[d]thiazol-4-yloxy)-N-((trans)-6-(2-hydroxypropan-2-yl)tetrahydro-2H-pyran-3-yl)cyclobutanecarboxamide], 10 to 79.4 nM.
`O=C(NC1CN(CC(F)F)C1)[C@H]1C[C@H](Oc2cc(F)ccc2OC(F)F)C1` [Example 15, (trans)-N-(1-(2,2-Difluoroethyl)azetidin-3-yl)-3-(2-(difluoromethoxy)-5-fluorophenoxy)cyclobutanecarboxamide]: the IC50 was 100 to 1000 nM.
As for `COc1ccc(F)cc1O[C@H]1C[C@H](C(=O)NC2CCN(c3cc(C#N)ccn3)C2)C1` (mixture of isomers) [Example 145, Racemic (trans)-N-(1-(4-Cyanopyridin-2-yl)pyrrolidin-3-yl)-3-(5-fluoro-2-methoxyphenoxy)cyclobutanecarboxamide], the IC50 was 10 to 79.4 nM.
